Measurements published in EP4052593B1, “TOBACCO FILLER FOR HEAT-NOT-BURN TOBACCO PRODUCTS, HEAT-NOT-BURN TOBACCO PRODUCT, AND ELECTRICALLY HEATED TOBACCO PRODUCT” (Japan Tobacco Inc., priority 2019, dated 2021).

Experiments:
[1] = Measurement of count median diameter of residual aerosol in dilution with DMS (differential mobility spectrometer); assay type: physicochemical; details: for Count median diameter: Experimental Example 1, DMS, reduced pressure 0.25 bar, primary dilution 25 L/min, secondary dilution 200-fold, weight addition ratio of Table 1; for count median diameter (result in words): Experimental Example 1, DMS
Text: Since the DMS measures an aerosol under reduced pressure (0.25 bar) and a high dilution condition, an aerosol with high volatility is easily vanished and gasified. In the case of an aerosol with relatively low volatility, a particle diameter distribution is obtained in terms of residual aerosol, although the aerosol is reduced by volatilization. In this case, if the diameters of generated aerosol particles are the same, the particle diameter distribution of the residual aerosol varies depending of the level of volatility. In this Example, a peak particle diameter based on the number is considered to indicate the stability under reduced pressure and a high dilution condition and thus is used as the index. A larger count median diameter means that an aerosol is more stably present, and a smaller count median diameter means that an aerosol is more unstable. Under the conditions of this experiment, the primary dilution was performed at 25 L/min, and the secondary dilution was set to 200-fold and performed. Note that a mass peak particle diameter immediately after the generation before dilution and pressure reduction were involved was also separately measured with Spraytec (Model STP5321, Malvern), and, in the types of additives and the range of the amounts of additives added in this Example, there was no difference, and the count median diameters were present at about 200 nm.

[2] = Measurement of solubility in glycerin (GC-FID); assay type: physicochemical; details: Experimental Example 1, excess fatty acid in 2 g glycerin, standing 48 hours
Procedure: The solubility in glycerin is most preferably measured by a method for quantitatively determining a fatty acid dissolved in 2 g of glycerin. Specifically, after an excessive amount of a fatty acid is added to glycerin, the mixture is separated into two layers, for example, by standing at ordinary temperature for 24 hours or more or by centrifugal separation, 100 mg aliquot of glycerin is taken, and transferred and dissolved into 2 mL of methanol, and the amount of fatty acid dissolved in glycerin is quantitatively determined by gas chromatograph-flame ionized detector (GC-FID) or gas chromatograph-mass spectrometer (GC-MS).
If the amount of fatty acid excessively added is large, the separation into two layers becomes difficult, and thus it is necessary to add the fatty acid in a slightly excessive amount.

Compound `CCCCC/C=C\C/C=C\CCCCCCCC(=O)O` [Comparative Example 7, Linoleic acid] has a Count median diameter [1] of 61.9 nm and a Solubility in glycerin [2] of 0.14 mg/g.

`CCCCCCCC(=O)O` [Comparative Example 2, Octanoic acid] gave a Count median diameter [1] of 38.7 nm.

In the case of `CCCCCCCCCCCCCCCC(=O)O` [Example 1, Palmitic acid], the Count median diameter [1] is reported as 67.8 nm.

`CCCCCCCCCC(=O)O` [Comparative Example 3, Decanoic acid] showed a Count median diameter [1] of 50.5 nm.

`CCCCCCCC/C=C\CCCCCCCC(=O)O` [Comparative Example 8, Oleic acid] showed a Count median diameter [1] of 55.1 nm and a Solubility in glycerin [2] of 1.82 mg/g.

With `CCCCCCCCCCCCCCCC(=O)O` [palmitic acid] the “count median diameter (result in words)” value [1] was “large count median diameters”.

Compound `CCCCCCCCCCCCCC(=O)O` [Comparative Example 4, Myristic acid] has a Count median diameter [1] of 51.6 nm and a Solubility in glycerin [2] of 0.14 mg/g.

In the case of `CCCCCCCCCCCCCCCCCCC(=O)O` [Comparative Example 5, Nonadecanoic acid], the Count median diameter [1] is reported as 74.6 nm and the Solubility in glycerin [2] is reported as 0.09 mg/g.

In the case of `CCCCCCCCCCCCCCCCCC(=O)O` [Example 2, Stearic acid], the “count median diameter (result in words)” value [1] is reported as “large count median diameters” and the Count median diameter [1] is reported as 75.3 nm.

Compound `CC/C=C\C/C=C\C/C=C\CCCCCCCC(=O)O` [Comparative Example 6, Linolenic acid] has a Solubility in glycerin [2] of 0.32 mg/g.
